Our source for the EC50 and CC50 values is patent US12030904B2 (priority 2020, dated 2024).

For orientation: EC50 means the midpoint of the concentration-response curve. By CC50 is commonly meant the concentration that lowers cell viability or growth by half. A high value points to lower toxicity to the cells.

For data set [1], the system named is Recombinant Respiratory Syncytial virus strain A2 containing the firefly luciferase reporter (RSV-Fluc). Description: microbe, parasite or virus in culture. In kind it is cell-based. The settings on record: human respiratory syncytial virus, NHBE.
A further data set concerns SARS-CoV-2. Kind of data set: microbe, parasite or virus in culture. To be noted: Severe acute respiratory syndrome coronavirus 2, read-out: SARS EC50. It is filed as cell-based.
The next data set can be described thus: MT4 cytotoxicity (CC50). To be noted: human, MT4 cells, MT4 CC50, Table 4.
Where [2] appears, read: 72 h, read-out: RSV-Fluc EC50 (NHBE), NHBE cells, three days, Table 2.

Where two headings read alike, the source gives them in different places.

Take `CCCCCCCCCCCCCCCCCCOC[C@H](COP(=O)(O)OC[C@H]1O[C@@](C#N)(c2ccc3c(N)ncnn23)[C@H](O)[C@@H]1O)OCc1cc(C#N)ccc1F` [Example 66, ((2R,3S,4R,5R)-5-(4-aminopyrrolo[2,1-f][1,2,4]triazin-7-yl)-5-cyano-3,4-dihydroxytetrahydrofuran-2-yl)methyl ((R)-2-((5-cyano-2-fluorobenzyl)oxy)-3-(octadecyloxy)propyl) hydrogen phosphate]: the EC50 in data set [1] (setting [2]) came out at 10 nM; in data set [1] (read-out: RSV EC50, Table 2a), 10 nM; with SARS-CoV-2 it was 476 nM.

`CCCCCCCCCCCCCCCCCCOC[C@H](COP(=O)(O)OC[C@H]1O[C@@](C#N)(c2ccc3c(N)ncnn23)[C@H](O)[C@@H]1O)OCc1cc(C#N)cc(C#N)c1` [Example 26, ((2R,3S,4R,5R)-5-(4-aminopyrrolo[2,1-f][1,2,4]triazin-7-yl)-5-cyano-3,4-dihydroxytetrahydrofuran-2-yl)methyl ((R)-2-((3,5-dicyanobenzyl)oxy)-3-(octadecyloxy)propyl) hydrogen phosphate]: the EC50 was determined as 19 nM in data set [1] (setting [2]); 19 nM in data set [1] (read-out: RSV EC50, Table 2a); 650 nM in the data set with SARS-CoV-2.

In the data set “MT4 cytotoxicity (CC50)”, `CCCCCCCCCCCCCCCCOC[C@H](COP(=O)(O)OC[C@H]1O[C@@](C#N)(c2ccc3c(N)ncnn23)[C@H](O)[C@@H]1O)OCc1cc(F)cc(C#N)c1` [Example 119, [(2R,3S,4R,5R)-5-(4-Aminopyrrolo[2,1-f][1,2,4]triazin-7-yl)-5-cyano-3,4-dihydroxy-tetrahydrofuran-2-yl]methyl [(2R)-2-[(3-cyano-5-fluoro-phenyl)methoxy]-3-hexadecoxy-propyl] hydrogen phosphate] displayed a CC50 of 404 nM. Besides, the EC50 in data set [1] (read-out: RSV EC50, Table 4) came out at 30 nM.

For `CCCCCCCCCCCCCCCCCCOC[C@H](COP(=O)(O)OC[C@H]1O[C@@](C#N)(c2ccc3c(N)ncnn23)[C@H](O)[C@@H]1O)OCc1ccc(F)cc1` [Example 110, [(2R,3S,4R,5R)-5-(4-Aminopyrrolo[2,1-f][1,2,4]triazin-7-yl)-5-cyano-3,4-dihydroxy-tetrahydrofuran-2-yl]methyl [(2R)-2-[(4-fluorophenyl)methoxy]-3-octadecoxy-propyl] hydrogen phosphate], the EC50 in data set [1] (read-out: RSV EC50, Table 4) amounted to 402 nM; in the data set on SARS-CoV-2, 1200 nM.

Consider `CCCCCCCCCCCCCCCCCCOC[C@H](COP(=O)(O)OC[C@H]1O[C@@](C#N)(c2ccc3c(N)ncnn23)[C@H](O)[C@@H]1O)OCc1c(F)cccc1C#N` [Example 65, ((2R,3S,4R,5R)-5-(4-aminopyrrolo[2,1-f][1,2,4]triazin-7-yl)-5-cyano-3,4-dihydroxytetrahydrofuran-2-yl)methyl ((R)-2-((2-cyano-6-fluorobenzyl)oxy)-3-(octadecyloxy)propyl) hydrogen phosphate], for which the concentration giving a half-maximal response (EC50) in data set [1] (setting [2]) turned out to be 61 nM; in data set [1] (read-out: RSV EC50, Table 2a), 61 nM.

For the molecule `CCCCCCCCCCCCCCCCCCOC[C@H](COP(=O)(O)OC[C@H]1O[C@@](C#N)(c2ccc3c(N)ncnn23)[C@H](O)[C@@H]1O)OCc1ccccc1Cl` [Example 64, ((2R,3S,4R,5R)-5-(4-aminopyrrolo[2,1-f][1,2,4]triazin-7-yl)-5-cyano-3,4-dihydroxytetrahydrofuran-2-yl)methyl ((R)-2-((2-chlorobenzyl)oxy)-3-(octadecyloxy)propyl) hydrogen phosphate], the EC50 in data set [1] (setting [2]) worked out at 42 nM; in data set [1] (read-out: RSV EC50, Table 2a) it was 42 nM; with SARS-CoV-2 it was 735 nM.

Turning to `CCCCCCCCCCCCCCCCOC[C@H](COP(=O)(O)OC[C@H]1O[C@@](C#N)(c2ccc3c(N)ncnn23)[C@H](O)[C@@H]1O)OCc1ccc(F)c(C#N)c1` [Example 109, [(2R,3S,4R,5R)-5-(4-Aminopyrrolo[2,1-f][1,2,4]triazin-7-yl)-5-cyano-3,4-dihydroxy-tetrahydrofuran-2-yl]methyl [(2R)-2-[(3-cyano-4-fluoro-phenyl)methoxy]-3-hexadecoxy-propyl] hydrogen phosphate], the EC50 in data set [1] (read-out: RSV EC50, Table 4) worked out at 347 nM; with SARS-CoV-2 it was 1600 nM.

Consider `CCCCCCCCCCCCCCCCCCOC[C@H](COP(=O)(O)OC[C@H]1O[C@@](C#N)(c2ccc3c(N)ncnn23)[C@H](O)[C@@H]1O)OCc1cc(Cl)cc(C#N)c1` [Example 68, ((2R,3S,4R,5R)-5-(4-aminopyrrolo[2,1-f][1,2,4]triazin-7-yl)-5-cyano-3,4-dihydroxytetrahydrofuran-2-yl)methyl ((R)-2-((3-chloro-5-cyanobenzyl)oxy)-3-(octadecyloxy)propyl) hydrogen phosphate], for which the EC50 in data set [1] (setting [2]) is 25 nM; in data set [1] (read-out: RSV EC50, Table 2a), 25 nM; in the data set on SARS-CoV-2, 927 nM.

On to `CCCCCCCCCCCCCCCCCCOC[C@H](COP(=O)(O)OC[C@H]1O[C@@](C#N)(c2ccc3c(N)ncnn23)[C@H](O)[C@@H]1O)Oc1ccc(OC)cn1` [Example 89, ((2R,3S,4R,5R)-5-(4-aminopyrrolo[2,1-f][1,2,4]triazin-7-yl)-5-cyano-3,4-dihydroxytetrahydrofuran-2-yl)methyl ((R)-2-((5-methoxypyridin-2-yl)oxy)-3-(octadecyloxy)propyl) hydrogen phosphate], for which it took 962 nM to reach half-maximal cytotoxicity in the data set “MT4 cytotoxicity (CC50)” (CC50). The EC50 in data set [1] (read-out: RSV EC50, Table 4) was found to be 28 nM.

In turn, `CCCCCCCCCCCCCCCCCCOC[C@H](COP(=O)(O)OC[C@H]1O[C@@](C#N)(c2ccc3c(N)ncnn23)[C@H](O)[C@@H]1O)Oc1ncccc1OC` [Example 91, ((2R,3S,4R,5R)-5-(4-aminopyrrolo[2,1-f][1,2,4]triazin-7-yl)-5-cyano-3,4-dihydroxytetrahydrofuran-2-yl)methyl ((R)-2-((3-methoxypyridin-2-yl)oxy)-3-(octadecyloxy)propyl) hydrogen phosphate] returned a CC50 in the data set “MT4 cytotoxicity (CC50)” of 454 nM. In data set [1] (read-out: RSV EC50, Table 4), the EC50 was found to be 46 nM.

For `CCCCCCCCCCCCCCCCCCOC[C@@H](COP(=O)(O)OC[C@H]1O[C@@](C#N)(c2ccc3c(N)ncnn23)[C@H](O)[C@@H]1O)Oc1ccccc1` [Example 38, ((2R,3S,4R,5R)-5-(4-aminopyrrolo[2,1-f][1,2,4]triazin-7-yl)-5-cyano-3,4-dihydroxytetrahydrofuran-2-yl)methyl ((S)-3-(octadecyloxy)-2-phenoxypropyl) hydrogen phosphate], the EC50 in data set [1] (read-out: RSV EC50, Table 2a) stood at 281 nM; in the data set with SARS-CoV-2, 10000 nM.

As to `CCCCCCCCCCCCCCCCCCOC[C@H](COP(=O)(O)OC[C@H]1O[C@@](C#N)(c2ccc3c(N)ncnn23)[C@H](O)[C@@H]1O)Oc1cccc(OC)n1` [Example 88, ((2R,3S,4R,5R)-5-(4-aminopyrrolo[2,1-f][1,2,4]triazin-7-yl)-5-cyano-3,4-dihydroxytetrahydrofuran-2-yl)methyl ((R)-2-((6-methoxypyridin-2-yl)oxy)-3-(octadecyloxy)propyl) hydrogen phosphate], the CC50 in the data set “MT4 cytotoxicity (CC50)” came to 201 nM. The EC50 in data set [1] (read-out: RSV EC50, Table 4) amounted to 31 nM.

Molecule `CCCCCCCCCCCCCCCCCCOC[C@H](COP(=O)(O)OC[C@H]1O[C@@](C#N)(c2ccc3c(N)ncnn23)[C@H](O)[C@@H]1O)Oc1cc(OC)ccn1` [Example 90, ((2R,3S,4R,5R)-5-(4-aminopyrrolo[2,1-f][1,2,4]triazin-7-yl)-5-cyano-3,4-dihydroxytetrahydrofuran-2-yl)methyl ((R)-2-((4-methoxypyridin-2-yl)oxy)-3-(octadecyloxy)propyl) hydrogen phosphate] had a CC50 in the data set “MT4 cytotoxicity (CC50)” of 383 nM. In data set [1] (read-out: RSV EC50, Table 4), the EC50 stood at 109 nM.

For the molecule `CCCCCCCCCCCCCCCCCCOC[C@H](COP(=O)(O)OC[C@H]1O[C@@](C#N)(c2ccc3c(N)ncnn23)[C@H](O)[C@@H]1O)Oc1cc(C#N)ccn1` [Example 99, [(2R,3S,4R,5R)-5-(4-Aminopyrrolo[2,1-f][1,2,4]triazin-7-yl)-5-cyano-3,4-dihydroxy-tetrahydrofuran-2-yl]methyl [(2R)-2-[(4-cyano-2-pyridyl)oxy]-3-octadecoxy-propyl]hydrogen phosphate], in the data set “MT4 cytotoxicity (CC50)”, half-maximal cytotoxicity (CC50) was put at 1780 nM. This counts as single-digit micromolar.

`CCCCCCCCCCCCCCCCCCCCOC[C@H](COP(=O)(O)OC[C@H]1O[C@@](C#N)(c2ccc3c(N)ncnn23)[C@H](O)[C@@H]1O)OCc1cc(F)cc(C#N)c1` [Example 125, ((2R,3S,4R,5R)-5-(4-aminopyrrolo[2,1-f][1,2,4]triazin-7-yl)-5-cyano-3,4-dihydroxytetrahydrofuran-2-yl)methyl ((R)-2-((3-cyano-5-fluorobenzyl)oxy)-3-(icosyloxy)propyl) hydrogen phosphate] gave a CC50 in the data set “MT4 cytotoxicity (CC50)” of 2080 nM. Further, the EC50 in data set [1] (read-out: RSV EC50, Table 4) turned out to be 129 nM.

Turning to `CCCCCCCCCCCCCCCCCCOC[C@H](COP(=O)(O)OC[C@H]1O[C@@](C#N)(c2ccc3c(N)ncnn23)[C@H](O)[C@@H]1O)OCc1cccc(OC)c1` [Example 63, ((2R,3S,4R,5R)-5-(4-aminopyrrolo[2,1-f][1,2,4]triazin-7-yl)-5-cyano-3,4-dihydroxytetrahydrofuran-2-yl)methyl ((R)-2-((3-methoxybenzyl)oxy)-3-(octadecyloxy)propyl) hydrogen phosphate], the EC50 in data set [1] (setting [2]) was 33 nM; in data set [1] (read-out: RSV EC50, Table 2a) it was 3 nM; in the data set on SARS-CoV-2 it was 1050 nM.

The molecule `CCCCCCCCCCCCCCCCCCOC[C@H](COP(=O)(O)OC[C@H]1O[C@@](C#N)(c2ccc3c(N)ncnn23)[C@H](O)[C@@H]1O)Oc1ccccc1` [Example 87, ((2R,3S,4R,5R)-5-(4-aminopyrrolo[2,1-f][1,2,4]triazin-7-yl)-5-cyano-3,4-dihydroxytetrahydrofuran-2-yl)methyl ((R)-3-(octadecyloxy)-2-phenoxypropyl) hydrogen phosphate] had a CC50 in “MT4 cytotoxicity (CC50)” of 3100 nM.

Take `CCCCCCCCCCCCCCCCCCOC[C@H](COP(=O)(O)OC[C@H]1O[C@@](C#N)(c2ccc3c(N)ncnn23)[C@H](O)[C@@H]1O)OCc1ccccc1C#N` [Example 50, ((2R,3S,4R,5R)-5-(4-aminopyrrolo[2,1-f][1,2,4]triazin-7-yl)-5-cyano-3,4-dihydroxytetrahydrofuran-2-yl)methyl ((R)-2-((2-cyanobenzyl)oxy)-3-(octadecyloxy)propyl) hydrogen phosphate]: the EC50 in data set [1] (setting [2]) stood at 90 nM; in data set [1] (read-out: RSV EC50, Table 2a), 90 nM; in the data set with SARS-CoV-2, 854 nM.
